Laboratory results: DBAASP
Values after ≈ are worked out from the molar mass of the structure shown. Values joined by “and” are separate entries in the source; they are usually repeats but may differ in a detail not shown here. Equal values may be shown once.

Key:
Assay in all cases: ≥ marks a high value that may be exact or a test limit, other limits are often not marked, values filed in µg/mL are converted to µM
[1] = system: Pseudomonas aeruginosa MTCC 3542
[2] = system: Enterococcus faecalis MTCC 439
[3] = system: Bordetella bronchiseptica MTCC 6837
[4] = system: Shigella boydii MTCC 11947
[5] = system: Klebsiella oxytoca MTCC 2275
[6] = system: Citrobacter freundii MTCC 1658
[7] = system: Haemophilus influenzae MTCC 621
[8] = system: Staphylococcus haemolyticus MTCC 3383
[9] = system: Salmonella enterica subsp. enterica serovar Typhimurium ATCC 14028
[10] = system: Corynebacterium glutamicum MTCC 2679
[11] = system: Klebsiella aerogenes MTCC 111
[12] = system: Proteus mirabilis MTCC 3158
[13] = system: Vibrio cholerae MTCC 3904
[14] = system: Shigella flexneri MTCC 1457
[15] = system: Alcaligenes faecalis MTCC 1937
[16] = system: Alkalihalobacillus alcalophilus MTCC 860
[17] = system: Klebsiella pneumoniae MTCC 7407
[18] = system: Stenotrophomonas maltophilia MTCC 1890
[19] = system: Staphylococcus aureus MTCC 3160
[20] = system: Acinetobacter baumannii MTCC 9829
[21] = system: Pluralibacter gergoviae MTCC 3826
[22] = system: Salmonella enterica MTCC 9844
[23] = system: Citrobacter koseri MTCC 1657
[24] = system: Escherichia coli K12 MG1655
[25] = system: Proteus vulgaris MTCC 1771
[26] = system: Staphylococcus aureus NCTC 8325
[27] = system: Batrachochytrium dendrobatidis
[28] = system: Candida albicans ATCC 90028
[29] = system: Escherichia coli ATCC 25922
[30] = system: Pseudomonas aeruginosa CICC 21630
[31] = system: Pseudomonas aeruginosa PAO1
[32] = system: Escherichia coli K88
[33] = system: Escherichia coli K99
[34] = system: Klebsiella pneumoniae
[35] = system: Escherichia coli UB1005
[36] = system: Pseudomonas aeruginosa
[37] = system: Escherichia coli
[38] = system: Pseudomonas aeruginosa CICC 21625
[39] = system: Acinetobacter baumannii
[40] = system: Salmonella enterica subsp. enterica serovar Typhimurium C77-31
[41] = system: Pseudomonas aeruginosa ATCC 27853
[42] = system: Salmonella enterica subsp. enterica serovar Pullorum C79-13

Compound | MIC [1] | MIC [2] | MIC [3] | MIC [4] | MIC [5] | MIC [6] | MIC [7] | MIC [8] | MIC [9] | MIC [10] | MIC [11] | MIC [12] | MIC [13] | MIC [14] | MIC [15] | MIC [16] | MIC [17] | MIC [18] | MIC [19] | MIC [29] | further results
CC(C)C[C@H](NC(=O)[C@H](CCCCN)NC(=O)CNC(=O)[C@H](C)NC(=O)[C@H](CCCN=C(N)N)NC(=O)[C@H](CO)NC(=O)[C@@H](N)CCC(=O)O)C(=O)N[C@@H](C)C(=O)N[C@@H](C)C(=O)N[C@@H](CCCCN)C(=O)N[C@@H](C)C(=O)N[C@@H](C)C(=O)N[C@@H](Cc1ccccc1)C(=O)N[C@@H](CCCCN)C(=O)N[C@@H](C)C(=O)N[C@@H](C)C(=O)N[C@@H](CCCCN)C(=O)N[C@@H](CCCN=C(N)N)C(=O)O [ESRAGKLAAKAAFKAAKR] | ≥ 68.3 µM | ≥ 68.3 µM | ≥ 68.3 µM | ≥ 68.3 µM | ≥ 68.3 µM | ≥ 68.3 µM | ≥ 68.3 µM | ≥ 68.3 µM | > 68.3 µM | ≥ 68.3 µM | ≥ 68.3 µM | ≥ 68.3 µM | ≥ 68.3 µM | ≥ 68.3 µM | ≥ 68.3 µM | ≥ 68.3 µM | ≥ 68.3 µM | ≥ 68.3 µM | ≥ 68.3 µM |  | MIC [20]: ≥ 68.3 µM; MIC [21]: ≥ 68.3 µM; MIC [22]: ≥ 68.3 µM; MIC [23]: ≥ 68.3 µM; MIC [24]: ≥ 68.3 µM; MIC [25]: ≥ 68.3 µM
CC[C@H](C)[C@@H]1NC(=O)[C@H](CCCCN)NC(=O)[C@@H](NC(=O)[C@H](CCCCN)NC(=O)[C@H](CC(C)C)NC(=O)[C@H](CCCCN)NC(=O)[C@H](CC(=O)O)NC(=O)[C@H](CC(C)C)NC(=O)[C@H](CCSC)NC(=O)[C@H](Cc2cnc[nH]2)NC(=O)CNC(=O)[C@H](C)NC(=O)[C@H](CC(C)C)NC(=O)[C@H](CC(N)=O)NC(=O)[C@H](CCCCN)NC(=O)[C@H](C)NC(=O)[C@@H](NC(=O)[C@H](CC(N)=O)NC(=O)[C@H](CCCCN)NC(=O)[C@@H](NC(=O)[C@@H](NC(=O)[C@H](CC(=O)O)NC(=O)[C@H](CCSC)NC(=O)[C@@H](N)CC(C)C)[C@@H](C)O)C(C)C)C(C)C)CSSC[C@@H](C(=O)O)NC(=O)CNC(=O)[C@H]([C@@H](C)O)NC1=O [LMDTVKNVAKNLAGHMLDKLKCKITGC] |  |  |  |  |  |  |  |  |  |  |  |  |  |  |  |  |  |  |  | 13 µM (≈ 38.3 µg/mL) | MIC [26]: ≥ 50 µM; MIC [27]: ≥ 100 µM; MIC [28]: ≥ 67 µM
CC[C@H](C)[C@H](N)C(=O)N[C@@H](CCCN=C(N)N)C(=O)N1CCC[C@H]1C(=O)N[C@H](C(=O)N[C@H](C(=O)N[C@@H](CCCN=C(N)N)C(=O)N1CCC[C@H]1C(=O)N[C@H](C(=O)N[C@H](C(=O)N[C@@H](CCCN=C(N)N)C(=O)N1CCC[C@H]1C(=O)N[C@H](C(=O)N[C@H](C(=O)N[C@@H](CCCN=C(N)N)C(=O)N1CCC[C@H]1C(=O)N[C@H](C(=O)N[C@H](C(=O)N[C@@H](CCCN=C(N)N)C(=O)N1CCC[C@H]1C(=O)N[C@H](C(=O)N[C@H](C(=O)N[C@@H](CCCN=C(N)N)C(=O)N1CCC[C@H]1C(=O)N[C@H](C(N)=O)[C@@H](C)CC)[C@@H](C)CC)[C@@H](C)CC)[C@@H](C)CC)[C@@H](C)CC)[C@@H](C)CC)[C@@H](C)CC)[C@@H](C)CC)[C@@H](C)CC)[C@@H](C)CC)[C@@H](C)CC [IRPIIRPIIRPIIRPIIRPIIRPI] |  |  |  |  |  |  |  |  | 4 µM (≈ 11.6 µg/mL) |  |  |  |  |  |  |  |  |  |  | 2 µM (≈ 5.79 µg/mL) | MIC [30]: ≥ 64 µM; MIC [31]: 8 µM (≈ 23.2 µg/mL); MIC [32]: 1 µM (≈ 2.89 µg/mL); MIC [33]: 2 µM (≈ 5.79 µg/mL); MIC [34]: 16 µM (≈ 46.3 µg/mL); MIC [35]: 2 µM (≈ 5.79 µg/mL); MIC [36]: > 64 µM; MIC [37]: 2 µM (≈ 5.79 µg/mL); MIC [38]: ≥ 64 µM; MIC [39]: 4 µM (≈ 11.6 µg/mL); MIC [40]: 4 µM (≈ 11.6 µg/mL); MIC [41]: 8 µM (≈ 23.2 µg/mL); MIC [42]: 4 µM (≈ 11.6 µg/mL)
CC[C@H](C)[C@H](NC(=O)[C@H](CC(C)C)NC(=O)[C@@H]1CCCN1C(=O)[C@H](CC(C)C)NC(=O)[C@@H](N)Cc1ccccc1)C(=O)NCC(=O)N[C@@H](CCCCN)C(=O)N[C@H](C(=O)N[C@@H](CC(C)C)C(=O)NCC(=O)N[C@H](C(=O)N[C@H](C(=O)N[C@@H](CC(C)C)C(N)=O)[C@@H](C)CC)[C@@H](C)O)[C@@H](C)CC [FLPLIGKILGTIL] |  |  |  |  |  |  |  |  |  |  |  |  |  |  |  |  |  |  |  | 140 µM (≈ 196 µg/mL) | MIC [26]: 5 µM (≈ 6.98 µg/mL); MIC [27]: ≥ 50 µM and 25 µM; MIC [28]: ≥ 150 µM
CC(C)C[C@H](NC(=O)[C@H](Cc1cnc[nH]1)NC(=O)[C@H](CCCN=C(N)N)NC(=O)[C@H](CC(C)C)NC(=O)[C@H](CCCN=C(N)N)NC(=O)[C@H](CCC(N)=O)NC(=O)[C@@H](NC(=O)[C@H](C)NC(=O)[C@H](CCCN=C(N)N)NC(=O)[C@H](CCCN=C(N)N)NC(=O)[C@H](C)NC(=O)[C@@H](NC(=O)[C@H](CCCN=C(N)N)NC(=O)[C@H](Cc1c[nH]c2ccccc12)NC(=O)[C@@H](N)CCC(=O)O)C(C)C)C(C)C)C(=O)N[C@@H](C)C(=O)N[C@@H](CCCN=C(N)N)C(=O)N[C@@H](CCCN=C(N)N)C(=O)N[C@@H](Cc1ccc(O)cc1)C(=O)N[C@@H](Cc1cnc[nH]1)C(=O)O [EWRVARRAVQRLRHLARRYH] | ≥ 48.7 µM | ≥ 48.7 µM | 0.76 µM (≈ 2 µg/mL) | 3.04 µM (≈ 8 µg/mL) | 3.04 µM (≈ 8 µg/mL) | 24.3 µM (≈ 64 µg/mL) | 3.04 µM (≈ 8 µg/mL) | 6.08 µM (≈ 16 µg/mL) | 6.08 µM (≈ 16 µg/mL) | 0.38 µM (≈ 1 µg/mL) | ≥ 48.7 µM | ≥ 48.7 µM | ≥ 48.7 µM | 0.38 µM (≈ 1 µg/mL) | ≥ 48.7 µM | 6.08 µM (≈ 16 µg/mL) | ≥ 48.7 µM | 24.3 µM (≈ 64 µg/mL) | ≥ 48.7 µM |  | MIC [20]: 6.08 µM (≈ 16 µg/mL); MIC [21]: ≥ 48.7 µM; MIC [22]: 6.08 µM (≈ 16 µg/mL); MIC [23]: 6.08 µM (≈ 16 µg/mL); MIC [24]: 6.08 µM (≈ 16 µg/mL); MIC [25]: ≥ 48.7 µM
